This is an account of results in US7557212B2, “Tricyclic derivatives as LTD4 antagonists” (Laboratorios Almirall, S.A., priority 2002, dated 2009).

The target of one assay is T1, CysLT1 (Cavia porcellus, UniProt Q2NNR5).
T1 construct: The assay mixture also contained 200 μg of lung membrane protein/plate well; from tissue; host or cells: guinea-pig lung (primarily parenchyma) membrane preparation
T1 sequence (Q2NNR5 1-340): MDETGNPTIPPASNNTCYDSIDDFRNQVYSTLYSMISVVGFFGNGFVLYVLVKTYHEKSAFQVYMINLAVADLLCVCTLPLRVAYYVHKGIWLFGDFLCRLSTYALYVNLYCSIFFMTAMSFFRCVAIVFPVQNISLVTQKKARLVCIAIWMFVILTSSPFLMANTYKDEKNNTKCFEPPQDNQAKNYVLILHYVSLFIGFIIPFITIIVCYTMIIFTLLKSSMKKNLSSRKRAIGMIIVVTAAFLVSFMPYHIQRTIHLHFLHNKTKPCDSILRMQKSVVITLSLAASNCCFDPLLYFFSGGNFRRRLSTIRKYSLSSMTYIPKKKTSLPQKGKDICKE
The assay can be described thus: CysLT1/LTD4 radioligand binding assay ([3H]LTD4, guinea-pig lung membrane preparation). The note with it: 300 pM [3H]LTD4, guinea-pig lung membranes, 30 minutes at room temperature. The protocol: CysLT1/LTD4 Binding Protocol (Guinea-Pig Lung Membrane Preparation)
Guinea pigs were sacrificed and lung tissues removed. Connective tissue, trachea, large blood vessels and major airways were removed and the remaining tissue, primarily parenchyma, was homogenised in 20 volumes of 10 mM TRIS pH 7.4 containing 0.25M sucrose, 0.25 mM phenylmethylsulfonyl fluoride, 155 μg/ml benzenecarboximide, 5 μg/ml soybean trypsin inhibitor and 100 μg/ml bacitracin (Work Buffer), in a ULTRA-TURRAX T25 at 13500 rpm. The homogenate was centrifuged at 1000×g for 10 minutes at 4° C. The resulting supernatant was filtered through a sterile cloth and further centrifuged for 15 minutes at 40000×g at 4° C. The pellet obtained was resuspended in 10 volumes of Work Buffer, homogenised using a Potter (1100 rpm) and subjected to a final centrifugation step for 30 minutes at 40000×g at 4° C. This membrane pellet was finally resuspended in 10 volumes of 10 mM TRIS and 10 mM PIPES pH 7.4, and homogenised using a Potter (1100 rpm). Protein concentration was determined by the BRADFORD method using the Bio-Rad Protein Assay kit with BSA as standard. Protein aliquots were kept frozen at −80° C.
Radioligand Binding Assay
[^3H]LTD4 (136.9 Ci/mmol) was obtained from NEN.
The assays were performed in a final volume of 250 μl of 10 mM PIPES pH 7.5 containing 10 mM CaCl2, 10 mM MgCl2, 50 mM NaCl, 2 mM L-Cysteine, 2 mM Glycine and 300 pM [^3H]LTD4. The assay mixture also contained 200 μg of lung membrane protein/plate well. Non-specific binding was determined in the presence of zafirlukast 10 μM.
The assays were performed directly on Millipore Multiscreen GF/B plates, presoaked with 200 μl/well of assay buffer at room temperature. Incubations were conducted for 30 minutes at room temperature with continuous shaking. Separation of bound and free [^3H]LTD4 was done by filtration through the plates that were then washed three times with 175 μl/wash of 10 mM TRIS containing 100 mM NaCl at 4° C. The plates were dried and counted in a TRILUX Microbeta Liquid Scintillation Counter of Wallac.

Assay [1] deals with LTD4-induced airway microvascular leakage. Description: LTD4-induced microvascular permeability in guinea-pigs (Evans blue extravasation in trachea). It counts as in vivo, guinea pig. The note with it: oral gavage 4 hours before, LTD4 1 μg/kg i.v., male Dunkin-Hartley guinea pigs. The protocol:
LTD4-Induced Microvascular Permeability in Guinea-Pigs
Male Dunkin-Hartey guinea pigs (450-500 g) fasted for 18 hours were administered the test compounds by oral gavage 4 hours before being anesthetized with urethane (15%, i.p. 10 ml/kg). The left jugular vein was canulated under anaesthesia. Five minutes afterwards, Evans blue dye (40 mg/Kg) was injected intravenously. After five more minutes, LTD4 was administered (1 μg/kg, i.v.) to the animals in order to induce airway microvascular leakage. After yet another period of 5 minutes, animals were exsanguinated by cutting the right atria and the vascular bed was rinsed by perfusing 50 ml of saline solution through the left ventricle at a pressure of 150 cmH2O. Then the trachea was excised and incubated in formamide for 20 hours at 55° C. to extract the Evans blue dye from the tissue. Microvascular permeability was determined by light spectrophotometry at 620 nm of the extravasated dye.

Where [2] appears, read: Cavia porcellus, read-out: ED50.

Read-outs that look alike come from different tables or passages of the source.

A word on the IC50: it is the concentration needed to halve the response being measured. In turn, `O=C(O)CCSC1c2cc(OCc3ccc4cc(F)c(Cl)cc4n3)ccc2CCc2ncccc21` (single isomer, unassigned; (+)) [Example 43, (+) 3-[7-(7-Chloro-6-fluoro-quinolin-2-ylmethoxy)-10,11-dihydro-5H-benzo[4,5]cyclohepta[1,2-b]pyridin-5-ylsulfanyl]-propionic Acid] displayed an IC50 on CysLT1 of 3400 pM.
For the compound `O=C(O)CCSC1c2cc(OCc3ccc4cc(F)c(F)cc4n3)ccc2C=Cc2ncccc21` (stereo not drawn) [Example 33, 3-[7-(6,7-Difluoro-quinolin-2-ylmethoxy)-5H-benzo[4,5]cyclohepta[1,2-b]pyridin-5-ylsulfanyl]-propionic Acid], the IC50 on CysLT1 was 500 pM.
`O=C(O)CCSC1c2ccncc2CCc2ccc(OCc3ccc4cc(F)c(F)cc4n3)cc21` (stereo not drawn) [Example 25, 3-[7-(6,7-Difluoro-quinolin-2-ylmethoxy)-10,11-dihydro-5H-benzo[4,5]cyclohepta[1,2-c]pyridin-5-ylsulfanyl]-propionic Acid] came in with an IC50 on CysLT1 of 670 pM. This IC50 and that of the compound before are within 1.5-fold of each other.
The compound `O=C(O)CCSC1c2cc(CCc3ccc4cc(F)c(F)cc4n3)ccc2OCc2cccnc21` (stereo not drawn) [Example 28, 3-{7-[2-(6,7-Difluoro-quinolin-2-yl)-ethyl]-5,11-dihydro-10-oxa-4-aza-dibenzo[a,d]cyclohepten-5-ylsulfanyl}-propionic Acid] gave an IC50 on CysLT1 of 2000 pM. This IC50 lies about 3-fold higher than the previous one.
Take `O=C(O)CSC1c2cc(OCc3ccc4cc(F)c(Cl)cc4n3)ccc2OCc2ncccc21` (stereo not drawn) [Example 3, {(7-[(7-chloro,6-fluoro-quinolin-2-yl)methoxy]-5,11-dihydro[1]benzoxepino[3,4-b]pyrindin-5-yl)thio}acetic Acid]: on CysLT1, the IC50 was 270 pM.
Turning to `CC(C)(CSC1c2cc(OCc3ccc4cc(F)c(F)cc4n3)ccc2OCc2ncccc21)C(=O)O` (stereo not drawn) [Example 8, 3-{(7-[(6,7-difluoroquinolin-2-yl)methoxy]-5,11-dihydro[1]benzoxepino[3,4-b]pyrindin-5-yl)thio}-2,2-dimethylpropanoic Acid], on CysLT1, the IC50 is 500 pM. Against the preceding compound, the IC50 is about 1.9-fold higher.
Usually ED50 stands for the dose that gives a 50% effect, or the effect in half of the subjects. `O=C(O)CCSC1c2cc(OCc3ccc4cc(F)c(F)cc4n3)ccc2OCc2ncccc21` (stereo not drawn) [Example 1, 3-{(7-[(6,7-difluoroquinolin-2-yl)methoxy]-5,11-dihydro[1]benzoxepino[3,4-b]pyridin-5-yl)thio}propanoic Acid]: the ED50 in assay [1] (setting [2]) stood at 0.009 mg/kg. Further, the IC50 at CysLT1 turned out to be 380 pM.
Regarding `O=C(O)CC1(CSC2c3cc(OCc4ccc5cc(F)c(F)cc5n4)ccc3OCc3cccnc32)CC1` (stereo not drawn) [Example 18, 1-{[(9-[(6,7-difluoroquinolin-2-yl)methoxy]-5,11-dihydro[1]benzoxepino[4,3-b]pyrindin-11-yl)thio]methyl}cyclopropyl Acetic Acid], the IC50 at CysLT1 was determined as 330 pM.
For `O=C(O)CC1(CSC2c3cc(OCc4ccc5cc(F)c(F)cc5n4)ccc3OCc3ncccc32)CC1` (stereo not drawn) [Example 7, 1-{[(7-[(6,7-difluoroquinolin-2-yl)methoxy]-5,11-dihydro[1]benzoxepino[3,4-b]pyrindin-5-yl)thio]methyl}cyclopropyl Acetic Acid], the ED50 in assay [1] (setting [2]) is 0.013 mg/kg. Also, the IC50 on CysLT1 worked out at 140 pM.
On to `O=C(O)CCSC1c2ccccc2COc2ccc(OCc3ccc4cc(F)c(Cl)cc4n3)cc21` (stereo not drawn) [Compound A, reference compound], for which the ED50 in assay [1] is listed as 0.010 mg/kg. Besides, the IC50 on CysLT1 amounted to 510 pM.
In the case of `O=C(O)CSC1c2cc(/C=C/c3ccc4cc(F)c(F)cc4n3)ccc2OCc2ncccc21` (stereo not drawn) [Example 12, {(7-[(E)-2-(6,7-difluoroquinolin-2-yl)vinyl]-5,11-dihydro[1]benzoxepino[3,4-b]pyrindin-5-yl)thio}acetic Acid], the half-maximal inhibitory concentration (IC50) on CysLT1 turned out to be 350 pM.
As to `O=C(O)CCSC1c2cc(OCc3ccc4cc(F)c(F)cc4n3)ccc2OCc2ncccc21` (single isomer, unassigned; (-)) [Example 35, (−)-3-[7-(6,7-Difluoro-quinolin-2-ylmethoxy)-5,11-dihydro-10-oxa-1-aza-dibenzo[a,d]cyclohepten-5-ylsulfanyl]-propionic Acid], the ED50 in assay [1] is on record as 0.009 mg/kg. Besides, on CysLT1, the half-inhibitory concentration (IC50) turned out to be 350 pM.
Turning to `O=C(O)CCSC1c2cc(OCc3ccc4cc(F)c(Cl)cc4n3)ccc2OCc2ncccc21` (stereo not drawn) [Example 4, 3-{(7-[(7-chloro,6-fluoro-quinolin-2-yl)methoxy]-5,11-dihydro[1]benzoxepino[3,4-b]pyrindin-5-yl)thio}propanoic Acid], the ED50 in assay [1] (setting [2]) is 0.03 mg/kg. The compound also had an IC50 at CysLT1 of 280 pM.
On the same counts, the results for `O=C(O)CCSC1c2cc(OCc3ccc4cc(F)c(F)cc4n3)ccc2OCc2ncccc21` (single isomer, unassigned; (+)) [Example 34, (+)-3-[7-(6,7-Difluoro-quinolin-2-ylmethoxy)-5,11-dihydro-10-oxa-1-aza-dibenzo[a,d]cyclohepten-5-ylsulfanyl]-propionic Acid] are 0.018 mg/kg and 1200 pM.
Regarding `O=C(O)CCSC1c2cc(OCc3ccc4cc(F)c(F)cc4n3)ccc2CCc2ncccc21` (stereo not drawn) [Example 24, 3-[7-(6,7-difluoro-quinolin-2-ylmethoxy)-10,11-dihydro-5H-benzo[4,5]cyclohepta[1,2-b]pyridin-5-ylsulfanyl]-propionic Acid], in assay [1] (setting [2]), the ED50 came out at 0.01 mg/kg. This compound also gave an IC50 on CysLT1 of 600 pM.
As to `CC(C)(CC(=O)O)SC1c2cc(OCc3ccc4cc(F)c(F)cc4n3)ccc2OCc2ncccc21` (stereo not drawn) [Example 9, 3-{(7-[(6,7-difluoroquinolin-2-yl)methoxy]-5,11-dihydro[1]benzoxepino[3,4-b]pyrindin-5-yl)thio}-3methylbutanoic Acid], the ED50 in assay [1] (setting [2]) came to 0.018 mg/kg. On CysLT1, the IC50 is 590 pM.
For `O=C(O)CC1(CSC2c3cc(/C=C/c4ccc5cc(F)c(F)cc5n4)ccc3OCc3ncccc32)CC1` (stereo not drawn) [Example 11, 1-{[(7-[(E)-2-(6,7-difluoroquinolin-2-yl)vinyl]-5,11-dihydro[1]benzoxepino[3,4-b]pyrindin-5-yl)thio]methyl}cyclopropyl Acetic], in that order: 0.0013 mg/kg and 270 pM.
As to `O=C(O)CC1(CSC2c3cc(/C=C/c4ccc5cc(F)c(F)cc5n4)ccc3C=Cc3ncccc32)CC1` (stereo not drawn) [Example 40, (1-{7-[2-(6,7-Difluoro-quinolin-2-yl)-vinyl]-5H-benzo[4,5]cyclohepta[1,2-b]pyridin-5-ylsulfanylmethyl}-cyclopropyl) Acetic Acid], on CysLT1, the IC50 amounted to 500 pM.
Turning to `CC(C)(O)c1ccccc1CC[C@@H](SCC1(CC(=O)O)CC1)c1cccc(/C=C/c2ccc3ccc(Cl)cc3n2)c1` [Compound B, reference compound], in assay [1] (setting [2]), the ED50 was found to be 0.008 mg/kg.
As to `O=C(O)CCSC1c2cc(OCc3ccc4cc(F)c(Cl)cc4n3)ccc2CCc2ncccc21` (stereo not drawn) [Example 23, 3-[7-(7-Chloro-6-fluoro-quinolin-2-ylmethoxy)-10,11-dihydro-5H-benzo[4,5]cyclohepta[1,2-b]pyridin-5-ylsulfanyl]-propionic Acid], the ED50 in assay [1] (setting [2]) amounted to 0.002 mg/kg. Besides, the IC50 on CysLT1 was 340 pM.
